# Experimental data taken from US7714017B2, “Carboxylic acid peri-substituted bicyclics for occlusive artery disease” (Decode Genetics, EHF, priority 2004, dated 2010).
# pIC50: −log10 of the molar value.
# Target: T1, prostanoid EP3 receptors (Homo sapiens, UniProt P43115)
# T1 sequence (P43115 1-390): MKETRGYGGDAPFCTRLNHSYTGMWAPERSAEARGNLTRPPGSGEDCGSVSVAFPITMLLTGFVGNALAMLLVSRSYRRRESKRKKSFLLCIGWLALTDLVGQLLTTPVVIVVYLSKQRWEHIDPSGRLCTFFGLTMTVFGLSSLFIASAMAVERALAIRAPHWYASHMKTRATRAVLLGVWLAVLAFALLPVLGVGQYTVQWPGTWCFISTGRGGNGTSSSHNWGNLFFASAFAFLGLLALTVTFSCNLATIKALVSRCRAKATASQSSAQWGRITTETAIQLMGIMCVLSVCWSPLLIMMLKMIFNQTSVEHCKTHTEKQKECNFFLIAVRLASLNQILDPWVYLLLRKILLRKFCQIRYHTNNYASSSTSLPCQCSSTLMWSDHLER
# Experiment: binding on prostanoid EP3 receptors (method of Abramovitz et al.)
# Conditions: Chart 1, read-out: Activity (EP3 receptor binding IC50 class)
# Procedure: (§1) The compounds of the invention were assayed for their binding on prostanoid EP3 receptors according to the method of Abramovitz et al. [Bioch. Biophys. Acta, 1473, 285-293 (2000)]. […] Compounds with IC50<1 μM are shown as +++; compounds with IC50 1-10 μM are shown as ++; and compounds with IC50>10 μM are shown as +.
# as §1, with “Acta.” for “Acta,”
row,pIC50,SMILES
1,5.00 to 6.00,"O=C(O)COc1cccc2oc(=O)n(Cc3ccc4c(c3)OCO4)c12 [Compound A05, (3-Benzo[1,3]dioxol-5-ylmethyl-2-oxo-2,3-dihydro-benzooxazol-4-yloxy)-acetic acid]"
2,5.00 to 6.00,CC(C)c1cn(Cc2ccc(Cl)cc2Cl)c2c(CCC(=O)O)cccc12 [Compound A14]
3,5.00 to 6.00,"CC12CCCC(/C=C/C(=O)O)=C1N(Cc1cccc(Cl)c1)C(=O)C2 (centres unmarked) [Compound A35, (E)-3-[1-(3-Chloro-benzyl)-3a-methyl-2-oxo-2,3,3a,4,5,6-hexahydro-1H-indol-7-yl]-acrylic acid]"
4,> 6.00,"CC12CCCC(/C=C/C(=O)O)=C1N(Cc1ccc(Cl)cc1Cl)C(=O)C2 (centres unmarked) [Compound A32, (E)-3-[1-(2,4-Dichloro-benzyl)-3a-methyl-2-oxo-2,3,3a,4,5,6-hexahydro-1H-indol-7-yl]-acrylic acid]"
5,5.00 to 6.00,"O=C(O)CCc1csc2ncc(C=Cc3ccc4ccccc4c3)n12 (mixture of isomers) [Compound A23, 3-[5-((E)-2-Naphthalen-2-yl-vinyl)-imidazo[2,1-b]thiazol-3-yl]-propionic acid]"
6,5.00 to 6.00,"CC12CCCC(/C=C/C(=O)O)=C1N(Cc1cccc(Cl)c1Cl)C(=O)C2 (centres unmarked) [Compound A36, (E)-3-[1-(2,3-Dichloro-benzyl)-3a-methyl-2-oxo-2,3,3a,4,5,6-hexahydro-1H-indol-7-yl]-acrylic acid]"
7,> 6.00,"O=C(O)/C=C/c1cccc2c1N(Cc1ccc3ccccc3c1)C(=O)C2=O [Compound A56, (E)-3-(1-Naphthalen-2-ylmethyl-2,3-dioxo-2,3-dihydro-1H-indol-7-yl)-acrylic acid]"
8,5.00 to 6.00,"Cn1cc(/C=C/C(=O)O)c2c(Oc3ccc(Cl)c(Cl)c3)cccc21 [Compound A39, (E)-3-[4-(3,4-Dichloro-phenoxy)-1-methyl-1H-indol-3-yl]-acrylic acid]"
9,> 6.00,O=C(O)C=Cc1cccc2c1N(Cc1ccc(Cl)cc1Cl)C(=O)C21OCCO1 [Compound A16]
10,5.00 to 6.00,"Cn1cc(/C=C/C(=O)O)c2c(Oc3ccc(F)c(Cl)c3)cccc21 [Compound A38, (E)-3-[4-(3-Chloro-4-fluoro-phenoxy)-1-methyl-1H-indol-3-yl]-acrylic acid]"
11,5.00 to 6.00,"Cc1cn(Cc2cn3ccccc3n2)c2c(/C=C/C(=O)O)cc(F)cc12 [Compound A57, (E)-3-(5-Fluoro-1-imidazo[1,2-a]pyridin-2-ylmethyl-3-methyl-1H-indol-7-yl)-acrylic acid]"
12,> 6.00,"Cn1cc(/C=C/C(=O)O)c2c(Oc3ccc(Cl)c(F)c3)cccc21 [Compound A43, (E)-3-[4-(4-Chloro-3-fluoro-phenoxy)-1-methyl-1H-indol-3-yl]-acrylic acid]"
13,> 6.00,"Cc1cn(Cc2ccc(Cl)cc2Cl)c2c(/C=C/C(=O)O)cc(F)cc12 [Compound A31, (E)-3-[1-(2,4-dichloro-benzyl)-5-fluoro-3-methyl-1H-indol-7-yl]-acrylic acid]"
14,5.00 to 6.00,"Cn1nc(NC(=O)c2ccc3ccccc3c2)c2c(/C=C/C(=O)O)cccc21 [Compound A26, (E)-3-{1-Methyl-3-[(naphthalene-2-carbonyl)-amino]-1H-indazol-4-yl}-acrylic acid]"
15,5.00 to 6.00,"O=C(O)/C=C/c1cccc2c1N(Cc1ccc(Cl)cc1Cl)C(=O)C2(F)F [Compound A20, (E)-3-[1-(2,4-Dichloro-benzyl)-3,3-difluoro-2-oxo-2,3-dihydro-1H-indol-7-yl]-acrylic acid]"
16,5.00 to 6.00,"CC(=O)c1cn(Cc2ccc(Cl)cc2Cl)c2c(/C=C/C(=O)O)cccc12 [Compound A13, (E)-3-[3-Acetyl-1-(2,4-dichloro-benzyl)-1H-indol-7-yl]-acrylic acid]"
17,5.00 to 6.00,"CC12CCCC(CCC(=O)O)C1N(Cc1ccc(F)c(F)c1)C(=O)C2 (centres unmarked) [Compound A49, 3-[1-(3,4-Difluoro-benzyl)-3a-methyl-2-oxo-octahydro-indol-7-yl]-propionic acid]"
